IC50 and Ki data for four compounds are collected here from BindingDB's records for doi:10.1002/cbic.200900750 (University of Toronto, 2010).

For this test, the target named is T1, Alpha-mannosidase 2 (Drosophila melanogaster, UniProt Q24451).
T1 sequence (Q24451 whole entry): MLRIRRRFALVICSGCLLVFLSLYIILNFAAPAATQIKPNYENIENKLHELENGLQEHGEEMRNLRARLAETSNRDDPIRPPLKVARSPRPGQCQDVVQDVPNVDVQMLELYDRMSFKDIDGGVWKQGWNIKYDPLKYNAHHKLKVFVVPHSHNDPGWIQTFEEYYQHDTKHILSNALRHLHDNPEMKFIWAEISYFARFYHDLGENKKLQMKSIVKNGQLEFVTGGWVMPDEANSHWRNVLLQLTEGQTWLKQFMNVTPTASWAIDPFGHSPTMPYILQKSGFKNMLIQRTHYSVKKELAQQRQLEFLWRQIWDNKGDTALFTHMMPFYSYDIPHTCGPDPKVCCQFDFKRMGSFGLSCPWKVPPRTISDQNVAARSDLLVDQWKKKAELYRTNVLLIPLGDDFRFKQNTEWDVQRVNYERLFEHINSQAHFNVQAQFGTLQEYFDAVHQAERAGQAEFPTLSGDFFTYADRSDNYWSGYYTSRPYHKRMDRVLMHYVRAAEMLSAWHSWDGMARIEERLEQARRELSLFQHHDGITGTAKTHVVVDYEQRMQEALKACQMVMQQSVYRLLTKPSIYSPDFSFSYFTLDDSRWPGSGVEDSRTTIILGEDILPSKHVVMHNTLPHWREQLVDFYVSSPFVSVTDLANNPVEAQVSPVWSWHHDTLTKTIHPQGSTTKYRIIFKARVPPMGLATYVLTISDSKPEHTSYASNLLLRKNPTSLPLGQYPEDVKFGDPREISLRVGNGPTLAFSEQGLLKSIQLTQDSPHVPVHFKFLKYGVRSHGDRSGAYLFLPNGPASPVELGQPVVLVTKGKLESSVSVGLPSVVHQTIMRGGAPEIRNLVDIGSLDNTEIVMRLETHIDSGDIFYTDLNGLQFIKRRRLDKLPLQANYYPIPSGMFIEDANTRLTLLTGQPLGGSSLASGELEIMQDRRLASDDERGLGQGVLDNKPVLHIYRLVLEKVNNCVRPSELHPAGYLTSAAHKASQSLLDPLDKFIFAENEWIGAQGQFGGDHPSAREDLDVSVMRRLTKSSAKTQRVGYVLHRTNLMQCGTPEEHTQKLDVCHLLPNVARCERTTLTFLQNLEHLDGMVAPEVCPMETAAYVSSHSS
The test can be described thus: Inhibition Assay. The conditions noted are these: pH 5.75; 25 °C.

As for `Cc1ccc(C(=O)C[C@H]2CC[C@@H](O)C3[C@H](O)[C@H](O)CN32)cc1` (stereo not given in full) [Swainsonine derivative, 3], the IC50 was determined as 29 nM.

`O=C(C[C@H]1CC[C@@H](O)C2[C@H](O)[C@H](O)CN21)c1ccccc1` (stereo not given in full) [Swainsonine derivative, 2] displayed an IC50 of 30 nM.

For `CC(C)(C)c1ccc(C(=O)C[C@H]2CC[C@@H](O)C3[C@H](O)[C@H](O)CN32)cc1` (stereo not given in full) [Swainsonine derivative, 4], the IC50 was found to be 29 nM. The IC50 values of the last two compounds are within 1.5-fold of each other.

In turn, `O[C@H]1[C@H]2[C@H](O)CCCN2C[C@H]1O` [(-)-swainsonine] yielded an IC50 of 37 nM and a Ki of 3 nM.
